Data from patent publication US9403873B2, “Peptides targeting receptor activator of nuclear factor-κB (RANK) and their applications” (UNIVERSITE DE NANTES, priority 2011, dated 2016).
Ends that are not written are not given here.

Assays:
hRANK [1] = target: T1, hRANK (Homo sapiens, UniProt Q9Y6Q6); experiment: Surface plasmon resonance (Biacore) binding to immobilized RANK-Fc; conditions: SPR, 1:1 Langmuir model
T1 construct: For NMR experiments with soluble RANK receptor-Fc (R&D Systems); purchased R&D Systems
T1 sequence (Q9Y6Q6 30-212 limits assumed): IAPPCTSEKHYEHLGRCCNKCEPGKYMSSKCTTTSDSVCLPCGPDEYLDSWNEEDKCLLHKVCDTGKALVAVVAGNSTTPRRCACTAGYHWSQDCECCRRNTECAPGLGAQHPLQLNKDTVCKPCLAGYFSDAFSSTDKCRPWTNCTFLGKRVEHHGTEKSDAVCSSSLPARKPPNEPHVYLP
Procedure: Biosensor experiments were carried out on a BIAcore 3000 instrument (BIAcore) as published previously (Baud′Huin et al. 2009). Recombinant purified RANKL (2 μg/mL in 5 mM maleate, pH 5.75) or RANK-Fc carrier-free (5 μg/mL in sodium acetate buffer, pH 5.0) were covalently immobilized to the dextran matrix of a CM5 sensor chip (BIAcore) at a flow rate of 5 μL/min. Immobilization levels ranging from 400 to 3000 Response Units (RU) for RANKL or 5000 RU for RANK were obtained. Binding assays were performed at 25° C. in 10 mM Hepes buffer, pH 7.4. The association phase was 180 seconds followed by a dissociation phase in the same buffer. Polypeptides binding studies to RANK or RANKL were determined using single cycle kinetics, starting with 100 μM of the polypeptide of interest followed by 2-fold serial dilutions (ranging from 100 to 0.78 μM). The sensorgrams were fitted to calculate the equilibrium-dissociation constants using the Langmuir 1:1 model with BiaEval 4.1 software (BIAcore). RANK-Fc CF, RANKL and OPG carrier-free were obtained from R&D Systems (Minneapolis, Minn., USA).

[2] = tested on: mesenchymal stem cells (MSCs); experiment: Mineralization of mesenchymal stem cells (Alizarin red staining); type: cell-based; conditions: 100 μM
[3] = tested on: RANKL-induced signaling (Akt, p38, ERK, NF-κB) in RAW264.7 cells; experiment: Western blot of RANKL-induced signaling in RAW264.7 cells; type: cell-based, murine
Procedure: After treatment for 5, 10, 15, 30 or 60 minutes at 37° C., total cell lysates were obtained and protein concentrations were determined as described previously (Duplomb et al. 2008). For NF-κB pathway analysis, separate cytoplasmic and nuclear protein fractions were obtained using the NE-PER Nuclear and Cytoplasmic Extraction Kit (Thermo Scientific, UK). Proteins (40 μg) were run on 10% SDS—PAGE and transferred to Immobilon-P membranes (Millipore, Billerica, Mass., USA), which were then incubated with antibodies to Akt, phospho-Akt, ERK 1/2, phospho-ERK 1/2, p38, phospho-p38, IκBα, p105, p65, p50 and Rel B (Cell Signalling, Danvers, Mass., USA). The labeled proteins were detected using the ECL reagent (Pierce, Rockford, Ill., USA). β-Actin (total cell extract or cytoplasmic fraction), histone H3, and HDAC (nuclear fraction) were used as housekeeping proteins (Cell Signalling).
Murine RAW264.7 cells (ATCC) were cultured in αMEM (Invitrogen) supplemented with 10% FBS (Hyclone). Human embryonic kidney 293 cells (ATCC) were stably transduced with an expression-ready clone (Ex-00007-Lv105, OmicsLink™ Expression Clone, GeneCopoeia™) containing the ORF cDNA of RANK/TNFRSF11A. HEK-RANK cells were maintained in DMEM (Lonza), 10% FBS and 1 μg/mL puromycin.

hRANK [4] = target: T1, hRANK; experiment: Saturation transfer difference (STD) NMR of Pep8 binding to RANK; conditions: Pep8:RANK-Fc 100:1 to 1000:1, phosphate buffer
Procedure: NMR experiments were run at 500.13 MHz for ^1H on a Bruker AVANCE 500 spectrometer with a Linux PC workstation, using standard 5 mm or Shigemi 3 mm tubes with susceptibility matched to solvent ^2H2O/Water sample tubes. The spectra of the polypeptide Pep8 at 0.1, 0.2, 0.4 or 1 mM sample concentrations were recorded in 50 mM sodium phosphate buffer at pH 7.4, prepared in 95% H2O and 5% ^2H2O. Two-dimensional NMR spectra were recorded in the phase-sensitive mode using the States—TPPI method (States et al. 1982). […] The two-dimensional COSY, TOCSY and NOESY spectra were recorded at 280 K. TOCSY spectra were recorded using a MLEV-17 spin-lock sequence (Bax et al. 1985) with a mixing time (τm) of 35 and 70 ms, respectively. 2D NOESY experiments were recorded at a mixing time (τm) of 100, 200 or 500 ms. The heteronuclear spectra ^1H-^13C HSQC were recorded at 280 K in the same conditions. […] Transferred nuclear Overhauser effect (TRNOESY) spectra of Pep8 with RANK receptor-Fc protein were recorded using a mixing time (Tm) of 100, 200 or 500 ms.
^1D ^1H STD NMR spectra of the polypeptide—protein mixtures were recorded at 500 MHz with 4K scans and selective saturation of protein resonances as described previously (Pons et al. 2011). […]

[5] = 50 μM, 15 minutes of RANKL treatment

NVLKLCSGE [Pep8, NVLKLCSGE]
kon (hRANK [1]; read-out: association rate constant (kon)): 495 M⁻¹ s⁻¹
koff (hRANK [1]; read-out: dissociation rate constant (koff)): 0.0052 s⁻¹
effect on mineralization of MSCs [2]: nor did the polypeptide at 100 μM exhibit any effect
RANKL-induced degradation of IκBα and nuclear translocation of p50 and p65 ([3]; 50 μM): blocked
expression levels of RelB in cytoplasmic and nuclear fraction ([3]; 50 μM): no effect
RANKL-induced Akt phosphorylation ([3]; 50 μM, 5 minutes of RANKL treatment): exhibited an inhibitory effect
RANKL-induced phosphorylation of ERK [3, 5]: inhibited phosphorylation
RANKL-induced phosphorylation of p38 [3, 5]: inhibited phosphorylation
basal phosphorylation of p38 ([3]; absence of RANKL stimulation): decreased phosphorylation of p38 even in the absence of RANKL stimulation
STD relative transfer ratio of residues C6S7 (hRANK [4]): 60%
STD saturation received by residues L3K4L5 (hRANK [4]): 100%
